Entries after “also recorded” stand apart in the source; their conditions may differ.
What was measured:
[1] = test system: rat epicardial stromal cells (EpiSC); conditions: cultured EpiSC from infarcted rat hearts; cited from earlier work
Source text: Using bacterial phage display screening, our previous work identified five small peptides that bound to cultured EpiSC, isolated from infarcted rat hearts, with high affinity. […] In the present study, we first aimed to assess the potential of EP9 for in vivo imaging of epicardial and myocardial stromal cells (fibroblasts) in the post-MI mouse heart. To this end, we coupled EP9 to a ^19F-containing PFC-NE (EP9-PFC-NE), designed for the in vivo labeling of cardiac cells (Figure 1). At 5 days post-MI (50 min ischemia/reperfusion), 150 µL of EP9-PFC-NE were injected into the tail vein of infarcted mice. PFC-NE coupl ... || page 3: Figure S2. Binding of peptide EP9 in comparison to control peptides to mouse cardiac fibroblasts and human monocytes (THP1). The binding of peptide EP9 in comparison to EP9-derived scrambled and mutated (MUT) peptides (see Table S1), as well as a negative control peptide (Negative) with low affinity to cardiac stromal cells (as previously assessed: peptide EP50), was evaluated by flow cytometry after 30 min of incubation in vitro. 6-FAM fluorescence signal of the peptides at the surface of mouse cardiac fibroblasts isolated from hearts 5 days after MI (n = 3 hearts) and human mono ...

[2] = test system: primary human cardiac fibroblasts; test: Peptide binding by flow cytometry (6-FAM fluorescence); format: cell-based; conditions: outgrowth culture, patient with terminal heart failure, 30 min, 37°C, 6-FAM MFI, n = 2 replicates
Protocol: (§1) To study the in vitro binding of 6-FAM-conjugated peptides (see above) we used the following cells: mouse EpiSC and cardiac fibroblasts prepared as described above, normal human dermal fibroblasts (NHDF) from juvenile foreskin, and human monocytes (THP-1). In addition, we used primary human cardiac fibroblasts which were prepared by outgrowth culture technique from a heart sample of a patient with terminal heart failure undergoing orthotopic heart transplant surgery, kindly provided by the Cardiac Surgery Department of the University Hospital Düsseldorf, Düsseldorf, Germany. A tissue sample weighing about ~5 g was removed from the failing heart's apex and placed in cooled BIOPS buffer to be divided into tiny pieces for subsequent culture to allow cell outgrowth in a 6‑well plate with DMEM (low glucose), 20% FBS, and 1% penicillin-streptomycin. The medium was replaced every 2 days and biopsy pieces were discarded after 5 days. After 14 days, cells reached a confluence of about 80% and were then passed to T75 cell culture flasks.
(§2) The binding assay was performed as follows: Cells were detached with PBS-EDTA (5 mM) for 10 min at 37°C and centrifuged at 500 × g for 5 min. Afterwards, 5 µg of synthesized peptide (see above) was added to 800 µL (0.5 x 10^6 cells) of the cell suspension and incubated for 30 min at 37°C. To control the specific targeting of the EP9 peptide, scrambled and mutated peptides were used as negative controls. Subsequently, 200 µL of the cell suspension were washed in 2 mL MACS buffer (2 % FBS and 1 mM EDTA in PBS) and centrifuged at 500 × g for 5 min and the supernatant was discarded. One additional washing step was performed by resuspending the cell pellet in 200 µL of MACS buffer and centrifugation at 500 × g for 5 min. After discarding the supernatant, the cell pellet was resuspended in 200 µL of 4′6-diamidino-2-phenylindole dichlorhydrate (DAPI) (Merck, Darmstadt, Germany) (1 µg/mL) to allow discrimination of dead cells. Flow cytometric analysis was performed using a BD FACS Canto II flow cytometer (BD Biosciences, Franklin Lakes, NJ, USA).

human monocytes (THP1) = test: as above; format: cell-based; conditions: 30 min, 37°C, 6-FAM MFI, n = 3 replicates
Protocol: as §1, §2

mouse EpiSC = test: as above; format: cell-based; conditions: EpiSC from hearts 5 days after MI, 5 µg peptide, 30 min, 37°C, 6-FAM MFI, n = 3 hearts
Protocol: as §1, §2

For “Ac-KLMLPRPGGGKC-NH2 [EP9, 7-amino acid peptide KLMLPRP with glycine spacer GGGK(FAM)C, from phage display on rat EpiSC]”, the “binding affinity to rat EpiSC” value [1] is given as “high binding affinity; also recorded: highest affinity and specificity”, the “binding to primary human cardiac fibroblasts” value [2] is given as “high binding” and the “binding to human monocytes (THP1)” value (human monocytes (THP1)) is given as “no discernible binding; also recorded: only negligible binding”. The “binding to cultured mouse EpiSC” value (mouse EpiSC) was “superior binding”.

— publication PMC11667234, “CD63 as novel target for nanoemulsion-based ^19F MRI imaging and drug delivery to activated cardiac fibroblasts” (Theranostics, 2025)
